Experimental findings from PMC6199744, “Development of Chemical Proteomics for the Folateome and Analysis of the Kinetoplastid Folateome” (ACS Infectious Diseases, 2018) are described below.

Read-outs that look alike come from different tables or passages of the source.

Assay type in all cases: binding
Test [1] deals with T1, HeLa cell extract proteins (Homo sapiens, UniProt P60660).
T1 construct: endogenous in cells; host or cells: HeLa cell extract
T1 sequence (P60660 1-151): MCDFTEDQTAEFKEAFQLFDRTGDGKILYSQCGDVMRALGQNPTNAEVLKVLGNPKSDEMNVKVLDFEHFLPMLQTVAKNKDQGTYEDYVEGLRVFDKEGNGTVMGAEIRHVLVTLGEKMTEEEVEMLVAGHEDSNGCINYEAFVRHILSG
As to conditions: HeLa; protein MYL6.

The target of test [2] is T2, HeLa cell extract proteins (Homo sapiens, UniProt Q06323).
T2 construct: endogenous in cells; host or cells: HeLa cell extract
T2 sequence (Q06323 whole entry): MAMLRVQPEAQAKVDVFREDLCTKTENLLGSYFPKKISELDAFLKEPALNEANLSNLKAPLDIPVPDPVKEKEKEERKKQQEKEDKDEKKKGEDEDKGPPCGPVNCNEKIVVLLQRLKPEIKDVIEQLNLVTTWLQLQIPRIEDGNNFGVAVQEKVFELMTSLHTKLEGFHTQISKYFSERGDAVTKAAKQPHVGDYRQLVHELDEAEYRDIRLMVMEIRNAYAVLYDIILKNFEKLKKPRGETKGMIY
As to conditions: HeLa; protein PSME1.

For test [3], the target named is T3, HeLa cell extract proteins (Homo sapiens, UniProt Q15233).
T3 construct: endogenous in cells; host or cells: HeLa cell extract
T3 sequence (Q15233 1-471): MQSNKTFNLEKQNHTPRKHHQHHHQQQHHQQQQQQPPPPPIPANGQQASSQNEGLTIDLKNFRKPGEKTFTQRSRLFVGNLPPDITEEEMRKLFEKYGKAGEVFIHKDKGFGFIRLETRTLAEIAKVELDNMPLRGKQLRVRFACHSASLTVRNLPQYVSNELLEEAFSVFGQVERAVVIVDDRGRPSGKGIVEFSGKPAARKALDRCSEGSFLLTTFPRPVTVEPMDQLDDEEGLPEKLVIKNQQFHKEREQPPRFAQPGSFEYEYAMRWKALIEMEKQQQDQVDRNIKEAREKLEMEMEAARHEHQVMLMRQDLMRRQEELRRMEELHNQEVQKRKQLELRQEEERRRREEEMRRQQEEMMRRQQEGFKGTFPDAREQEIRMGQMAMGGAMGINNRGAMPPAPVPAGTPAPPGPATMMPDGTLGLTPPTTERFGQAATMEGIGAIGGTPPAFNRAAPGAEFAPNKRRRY
To be noted: protein NONO; HeLa.

For test [4], the target named is T4, HeLa cell extract proteins (Homo sapiens, UniProt P14174).
T4 construct: endogenous in cells; host or cells: HeLa cell extract
T4 sequence (P14174 1-115): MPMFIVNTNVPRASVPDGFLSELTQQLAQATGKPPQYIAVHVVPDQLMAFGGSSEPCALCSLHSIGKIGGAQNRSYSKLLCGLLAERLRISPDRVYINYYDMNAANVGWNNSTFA

Test [5] concerns the target T5, HeLa cell extract proteins (Homo sapiens, UniProt P30049).
T5 construct: endogenous in cells; host or cells: HeLa cell extract
T5 sequence (P30049 23-168): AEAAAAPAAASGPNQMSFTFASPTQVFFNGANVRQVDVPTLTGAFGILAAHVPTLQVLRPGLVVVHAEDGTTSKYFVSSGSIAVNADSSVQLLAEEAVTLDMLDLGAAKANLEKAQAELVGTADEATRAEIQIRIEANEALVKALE

Test [6] has as its target T6, HeLa cell extract proteins (Homo sapiens, UniProt P31939).
T6 construct: endogenous in cells; host or cells: HeLa cell extract

Test [7] has as its target T7, HeLa cell extract proteins (Homo sapiens, UniProt Q14157).
T7 construct: endogenous in cells; host or cells: HeLa cell extract
T7 sequence (Q14157 1-1087): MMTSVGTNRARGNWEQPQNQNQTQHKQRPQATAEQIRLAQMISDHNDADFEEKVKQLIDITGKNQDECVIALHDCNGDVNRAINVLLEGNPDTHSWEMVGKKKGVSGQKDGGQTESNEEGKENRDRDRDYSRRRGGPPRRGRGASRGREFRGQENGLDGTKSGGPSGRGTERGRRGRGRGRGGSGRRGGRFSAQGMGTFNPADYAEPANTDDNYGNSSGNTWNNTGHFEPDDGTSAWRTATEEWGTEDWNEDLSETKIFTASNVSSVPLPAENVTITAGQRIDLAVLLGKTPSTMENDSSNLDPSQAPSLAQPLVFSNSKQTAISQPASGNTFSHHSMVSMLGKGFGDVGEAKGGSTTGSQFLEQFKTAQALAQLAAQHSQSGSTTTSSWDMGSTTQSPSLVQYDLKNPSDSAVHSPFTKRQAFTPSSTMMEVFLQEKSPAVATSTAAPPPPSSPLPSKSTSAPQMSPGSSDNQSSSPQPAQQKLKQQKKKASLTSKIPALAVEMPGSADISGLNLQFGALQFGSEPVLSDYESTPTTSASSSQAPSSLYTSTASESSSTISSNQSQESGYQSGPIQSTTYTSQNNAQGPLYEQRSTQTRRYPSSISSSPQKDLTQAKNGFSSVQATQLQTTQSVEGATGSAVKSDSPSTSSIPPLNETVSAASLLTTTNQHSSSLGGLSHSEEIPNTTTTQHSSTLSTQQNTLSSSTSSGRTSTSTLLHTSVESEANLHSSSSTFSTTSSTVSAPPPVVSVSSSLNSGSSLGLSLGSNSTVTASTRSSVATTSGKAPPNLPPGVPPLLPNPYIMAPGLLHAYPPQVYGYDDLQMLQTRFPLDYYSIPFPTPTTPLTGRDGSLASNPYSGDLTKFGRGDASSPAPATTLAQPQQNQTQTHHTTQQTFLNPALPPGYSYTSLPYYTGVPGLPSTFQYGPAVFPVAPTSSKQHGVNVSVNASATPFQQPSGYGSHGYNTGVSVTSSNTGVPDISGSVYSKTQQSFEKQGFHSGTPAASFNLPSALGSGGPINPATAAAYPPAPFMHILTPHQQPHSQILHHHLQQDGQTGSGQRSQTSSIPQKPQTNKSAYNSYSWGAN

[8] abbreviates: HeLa, protein LOC284889 (MACROPHAGE MIGRATION INHIBITORY FACTOR).

T6 sequence (P31939 whole entry): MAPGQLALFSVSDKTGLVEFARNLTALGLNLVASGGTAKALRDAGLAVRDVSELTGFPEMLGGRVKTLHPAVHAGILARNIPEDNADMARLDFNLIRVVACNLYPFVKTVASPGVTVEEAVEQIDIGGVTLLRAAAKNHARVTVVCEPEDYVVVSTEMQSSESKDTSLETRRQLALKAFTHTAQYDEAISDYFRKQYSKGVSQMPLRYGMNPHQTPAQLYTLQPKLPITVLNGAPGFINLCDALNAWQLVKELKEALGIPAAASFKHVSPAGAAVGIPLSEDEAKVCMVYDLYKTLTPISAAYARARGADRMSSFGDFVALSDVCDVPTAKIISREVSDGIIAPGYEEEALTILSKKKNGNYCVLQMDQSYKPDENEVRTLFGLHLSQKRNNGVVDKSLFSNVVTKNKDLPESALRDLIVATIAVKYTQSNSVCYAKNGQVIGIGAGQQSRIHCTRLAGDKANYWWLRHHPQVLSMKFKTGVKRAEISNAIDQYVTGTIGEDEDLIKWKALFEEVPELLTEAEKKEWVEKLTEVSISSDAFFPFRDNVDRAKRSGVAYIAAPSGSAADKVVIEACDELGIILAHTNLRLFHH

In the case of `Nc1nc2cccc(-c3ccccc3)c2n1Cc1ccc(Cl)c(Cl)c1` [compound 3], the “fold changes relative to vehicle control” value was 1.11 in test [1], 1.04 in test [2] and 0.92 in test [3].

As to `NCCOCCOCC(=O)Nc1nc2ncc(CNc3ccc(C(=O)NC(CCC(=O)O)C(=O)O)cc3)nc2c(=O)[nH]1` (stereo not shown) [compound 6], the “fold changes relative to vehicle control” value in test [4] (setting [8]) is 1.26; in test [5] (protein ATP5D, HeLa), 1.17; in test [6] (HeLa, protein ATIC), 1.13; in test [7] (HeLa, protein UBAP2L), 1.1.

For the compound `Nc1nc2[nH]cc(CCc3ccc(C(=O)N[C@@H](CCC(=O)O)C(=O)O)cc3)c2c(=O)[nH]1` [PTX, pemetrexed], the “fold changes relative to vehicle control” value is 1.29 in test [4], 1.14 in test [5], 0.91 in test [6] and 0.98 in test [7].

Regarding `Nc1nc2c(c(=O)[nH]1)N(C=O)C(CNc1ccc(C(=O)N[C@@H](CCC(=O)O)C(=O)O)cc1)CN2` (stereo partly shown) [LEU, leucovorin], the “fold changes relative to vehicle control” value in test [4] (setting [8]) was 1.32; in test [5] (protein ATP5D, HeLa) it was 0.85; in test [6] (HeLa, protein ATIC), 1.06; in test [7] (HeLa, protein UBAP2L) it was 0.9.

Take `CCCCCCOc1ccc(Cc2cnc(N)nc2N)cc1` [compound 1]: the entries for the “fold changes relative to vehicle control” value in test [1], in test [2] and in test [3] were 1.14, 0.97 and 0.97, respectively.

With `NCCCNc1ccc(C(=O)NC(CCC(=O)O)C(=O)O)cc1` (stereo not shown) [compound 7], the “fold changes relative to vehicle control” value is recorded as 1.25 in test [4] (setting [8]); 1.2 in test [5] (protein ATP5D, HeLa); 0.99 in test [6] (HeLa, protein ATIC); 1.08 in test [7] (HeLa, protein UBAP2L).

With `CCCCCCOc1cccc(Cc2cnc(N)nc2N)c1` [compound 2], the “fold changes relative to vehicle control” value is reported as 1.3 in test [1], 1.35 in test [2] and 1.67 in test [3].
